What all share (type): physicochemical
A short description of data set [1]: glass transition temperature (Tg) of the drug. To be noted: for Tg: Table B, unless noted Tg measured at less than 10% RH. On the procedure: In a first aspect, the invention comprises a solid composition comprising a plurality of particles. The particles comprise a low-solubility drug and a poloxamer. The drug is in intimate contact with the poloxamer in the particles. Collectively, the drug and poloxamer constitute at least 50 wt % of the particles. At least a substantial portion of the drug in the composition is amorphous. The Tg of the drug is at least 50° C. Unless otherwise noted, as used herein the Tg refers to the Tg measured at less than 10% RH.
Such Tg values may represent that of drug dispersed in the amorphous portions of the poloxamer or the Tg of drug-rich phases or domains. […] The Tg of the drug may be at least about 60° C., at least about 70° C., or even at least about 80° C. The Tg of a drug can be determined using standard analytical techniques well known in the art, including by a dynamic mechanical analyzer (DMA), a dilatometer, a dielectric analyzer, and by differential scanning calorimetry (DSC).

Data set [2] is described as follows: in vitro dissolution test of Drug 4 compositions in PBS. To be noted: for AUC / Drug 4 Concentration: 1000 μg/mL if all dissolved; for Drug 4 Concentration: 37° C. The protocol: (§1) The solid compositions of Examples 1-2 were evaluated in an in vitro dissolution test to ascertain concentration enhancement of Drug 1. A […] sample of each solid composition was added in duplicate to a microcentrifuge tube, so that the total concentration of Drug 1 would have been 2000 μg/mL if all of the drug had dissolved. The tubes were placed in a 37° C. temperature-controlled chamber, and 1.8 mL PBS containing 0.5 wt % sodium taurocholic acid and 1-palmitoyl-2-oleyl-sn-glycero-3-phosphocholine (NaTC/POPC, with a 4/1 weight ratio) at pH 6.5 and 290 mOsm/kg (simulating a Model Fasted Duodenal solution) was added to each respective tube. The samples were quickly mixed using a vortex mixer for about 60 seconds. The samples were centrifuged at 13,000 G at 37° C. for 1 minute. The resulting supernatant solution was then sampled and diluted 1:6 (by volume) with methanol and then analyzed by high-performance liquid chromatography (HPLC). The contents of each respective tube were mixed on a vortex mixer and allowed to stand undisturbed at 37° C. until the next sample was taken. Samples were collected at 4, 10, 20, 40, 90, and 1200 minutes.
The solid compositions of Examples 10-13 were evaluated in an in vitro dissolution test as in Examples 1-2, except that the dissolution medium was PBS. The amount of each composition added to the microcentrifuge tube was adjusted so that the concentration of Drug 4 in solution if all of the drug had dissolved was 1000 μg/mL.
The spray-dried compositions of Examples 14-15 were evaluated in an in vitro dissolution test as in Examples 10-13. The amount of each composition added to the microcentrifuge tube was adjusted so that the concentration of Drug 4 in solution if all of the drug had dissolved was […].
This composition was evaluated in an in vitro dissolution test as in Examples 10-13.

Data set [3] can be described thus: in vitro dissolution test of Drug 1 compositions in Model Fasted Duodenal solution. The note with it: for AUC: MFD solution; for AUC / Drug 1 Concentration: 2000 μg/mL if all dissolved; for Drug 1 Concentration: MFD solution pH 6.5, 37° C. The protocol:
as §1
As a control (C1), a sample of crystalline Drug 1 alone was tested in the same manner so that the concentration of Drug 1 in MFD solution would have been 2000 μg/mL if all of the drug had dissolved.
The concentrations of drug obtained in these samples were used to determine the maximum drug concentration (“MDC90”) and the area under the concentration-versus-time curve (“AUC90”) during the initial 90 minutes.

The record followed here is patent US8974823B2, “Solid compositions of low-solubility drugs and poloxamers” (Bend Research, Inc., priority 2003, dated 2015).

Consider `Cl.Cl.O=C(O)COCCN1CCN(C(c2ccccc2)c2ccc(Cl)cc2)CC1` (stereo not drawn) [(2(-(4-((4-chlorophenyl)phenylmethyl)-1-piperazinyl)ethoxy)acetic acid, dihrochloride], for which the Tg in data set [1] was 112 °C.
For the molecule `CCOC(=O)N1c2ccc(C(F)(F)F)cc2[C@@H](N(Cc2cc(C(F)(F)F)cc(C(F)(F)F)c2)C(=O)OC)C[C@H]1CC` [Control C6, Torcetrapib], the “Cmax90” value in data set [2] (Drug 4, initial 90 minutes) is under 1000 ng/mL. The AUC90 was under 1470 ng·h/mL in data set [2] (Drug 4, initial 90 minutes, Table 12); under 88 min-μg/mL in data set [2] (Drug 4, initial 90 minutes, Table 15); under 1470 ng·h/mL in data set [2] (Drug 4, initial 90 minutes, Table 18). In addition, the AUC in data set [2] (Drug 4, time 0 min) is given as 0 min-μg/mL; in data set [2] (Drug 4, time 4 min), under 2 min-μg/mL; in data set [2] (Drug 4, time 10 min), under 8 min-μg/mL; in data set [2] (Drug 4, time 20 min), under 18 min-μg/mL; in data set [2] (Drug 4, time 40 min) it was under 38 min-μg/mL; in data set [2] (Drug 4, time 90 min) it was under 88 min-μg/mL. Also, the AUC in data set [2] (Drug 4, time 1200 min) is recorded as <1,200 min-μg/mL. In addition, the “Drug 4 Concentration” value in data set [2] (time 0 min) is 0 µg/mL; in data set [2] (time 4 min) it was under 1 µg/mL; in data set [2] (time 10 min) it was under 1 µg/mL; in data set [2] (time 20 min) it was under 1 µg/mL; in data set [2] (time 40 min), under 1 µg/mL; in data set [2] (time 90 min) it was under 1 µg/mL. Further, the “Drug 4 Concentration” value in data set [2] (time 1200 min) was under 1 µg/mL.
“4-[3-[4-(2-methylimidazol-1-yl) phenylthio] phenyl]-3,4,5,6-tetrahydro-2H-pyran-4-carboxamide hemifumarate” gave a Tg in data set [1] of 81 °C.
On the same count and under the same terms, the result for `O=C1Cc2cc(CCN3CCN(c4nsc5ccccc45)CC3)c(Cl)cc2N1` [Ziprasidone] reads 72 °C; that for `C[C@@H]1CC[C@@]2(OC1)O[C@H]1C[C@H]3[C@@H]4CC[C@H]5C[C@@H](O[C@@H]6O[C@H](CO)[C@@H](O[C@@H]7O[C@H](COC(=O)Nc8ccccc8F)[C@@H](OC(=O)Nc8ccccc8F)[C@H](O)[C@H]7O)[C@H](O)[C@H]6O)CC[C@]5(C)[C@H]4CC(=O)[C@]3(C)[C@H]1[C@@H]2C` [3-[(4-O-{4,6-bis(2-flurophenylcarbamoyl)]-β-D-glucopyranolsyl-)β-D-flucopyranosyl]oxy-(3β,5α,25R)-spirostan-12-one], 143 °C.
The same measure, in the same setting: the result for `CC(C)c1c(C(=O)Nc2ccccc2)c(-c2ccccc2)c(-c2ccc(F)cc2)n1CCC(O)CC(O)CC(=O)[O-].CC(C)c1c(C(=O)Nc2ccccc2)c(-c2ccccc2)c(-c2ccc(F)cc2)n1CCC(O)CC(O)CC(=O)[O-].O.O.O.[Ca+2]` (stereo not drawn) [2-(4-fluorophenyl)-beta, delta-dihydroxy-5-(1-methylethyl)-3-phenyl-4-[(phenylamino)carbonyl]-1H-pyrrole-1-heptanoic acid, calcium salt (2:1), trihydrate] reads 111 °C.
As for `O=C(N[C@@H](Cc1ccccc1)[C@@H](O)C(=O)N1C[C@@H](O)[C@@H](O)C1)c1cc2cc(Cl)ccc2[nH]1` [Example C1, 5-chloro-1H-indole-2-carboxylic acid [(1S)-benzyl-(2R)-hydroxy-3-((3R,4S)-dihydroxy-pyrrolidin-1-yl-)-3-oxypropyl]amide], the AUC90 in data set [3] (Drug 1, MFD, initial 90 minutes) is recorded as 21,600 min * μg/mL. The MDC90 in data set [3] (Drug 1, MFD, maximum drug concentration during initial 90 minutes) is 255 µg/mL. In addition, the AUC in data set [3] (Drug 1, time 0 min) is 0 µg·min/mL; in data set [3] (Drug 1, time 4 min), 400 µg·min/mL; in data set [3] (Drug 1, time 10 min), 1700 µg·min/mL; in data set [3] (Drug 1, time 20 min) it was 4100 µg·min/mL; in data set [3] (Drug 1, time 40 min), 9000 µg·min/mL; in data set [3] (Drug 1, time 90 min), 21,600 min * μg/mL. Besides, the AUC in data set [3] (Drug 1, time 1200 min) is listed as 299,000 min * μg/mL. For the same molecule, the “Drug 1 Concentration” value in data set [3] (time 0 min) was found to be 0 µg/mL; in data set [3] (time 4 min), 204 µg/mL; in data set [3] (time 10 min) it was 227 µg/mL; in data set [3] (time 20 min), 243 µg/mL; in data set [3] (time 40 min), 250 µg/mL; in data set [3] (time 90 min) it was 255 µg/mL. Also, the “Drug 1 Concentration” value in data set [3] (time 1200 min) was 244 µg/mL.
`O=C(N[C@@H](Cc1ccccc1)[C@@H](O)C(=O)N1C[C@@H](O)[C@@H](O)C1)c1cc2cc(Cl)ccc2[nH]1` [Drug 1, 5-chloro-1H-indole-2-carboxylic acid [(1S)-benzyl-(2R)-hydroxy-3-((3R,4S)-dihydroxy-pyrrolidin-1-yl-)-3-oxypropyl]amide] showed a Tg in data set [1] of 96 °C. The “Tg,drug” value in data set [1] (at ambient RH) was determined as 113 °C.
The molecule `CON(C)C(=O)C(O)[C@H](Cc1ccccc1)NC(=O)c1cc2cc(Cl)ccc2[nH]1` (stereo in doubt) [[R—(R*,S*)]-5-chloro-N-[2-hydroxy-3-[(methoxymethylamino)-3-oxo-1-(phenylmethyl)propyl]propyl]-1H-indole-2-carboxamide] displayed a Tg in data set [1] of 80 °C.
`CCC(CC)Nc1cc(C)nc(Oc2c(C)cc(C)cc2C)c1C.Cl` [[3,6-dimethyl-2-(2,4,6-trimethyl-phenoxy)-pyridin-4-yl]-(1-ethyl-propyl)-amine hydrochloride] registered a Tg in data set [1] of 87 °C.
In data set [1], `O=C(O)c1ccc(C(F)(F)F)cc1-c1ccc2c(c1)OCC(Cc1ccccc1)C2O` (single isomer, unassigned; (+)) [(+)-2-(3-benzyl-4hydroxy-chroman-7-yl)-4-trifluoromethyl-benzoic acid] yielded a Tg of 53 °C.
Still for that read-out and setting: the result for `O=C(NC(Cc1ccccc1)C(=O)N1CC(O)C1)c1cc2cc(Cl)ccc2[nH]1` (stereo not drawn) [5-chloro-1H-indole-2-carboxylic acid [(1)-benzyl-2-(3-hydroxy-azetidin-1-yl)-2-oxo-ethyl]-amide] reads 91 °C.
